Source: patent US20140296223A1, “METHOD FOR REGULATING SKIN PIGMENTATION” (THE GENERAL HOSPITAL CORPORATION, priority 2011, published 2014)

Assays:
[1] = tested on: Microphthalmia Transcription Factor (MITF); assay: TRPM1-luciferase reporter screen for MITF antagonists in Skme15 melanoma cells; type: cell-based, human; settings: screen, suppression of TRPM1-luciferase activity, Skme15 cells
From the text: In order to carry out a successful MITF antagonist screen, the inventors utilized a TRPM1-luciferase reporter. […] Therefore, the TRPM1-luciferase reporter stably integrated into melanoma cells is effective for the screening assay. The use of melanoma cells, while less perfectly relevant than primary human melanocytes, afforded the advantages of speed and reproducibility for the screen.
In order to engineer a screen which broadly suppress MITF activity either by suppression of MITF expression or by inhibition of MITF activity, the inventors utilized a luciferase reporter containing the promoter of a strong direct transcriptional target of MITF, i.e., TRPM1 gene, the inventors have identified the active ingredients having the ability of inhibiting the expression or activation of Microphthalmia Transcription Factor (MITF) for medical or esthetic benefit. The inventors have previously identified the TRPM1 gene (also called “Melastatin”) as a direct target of MITF, which contains numerous MITF binding sites, and which directly responds in potent fashion to MITF overexpression (Miller A J, Du J, Rowan S, Hershey C L, Widlund H R, Fisher D E: Transcriptional regulation of the melanoma prognostic marker melastatin (TRPM1) by MITF in melanocytes and melanoma, Cancer Res 2004, 64:509-516). TRPM1 expression also correlates closely to MITF expression within human melanoma cell lines, as well as in clinical pigmented lesions (nevi and melanomas).
The TRPM1 promoter was ligated to the luciferase gene and inserted into a retroviral vector as well as a lentiviral vector. The lentiviral vector was used to infect primary human melanocytes, which then was subjected to a primary screen using the Broad Chemical Genetics core screening facility, and its natural products/extracts libraries. As backup, the retroviral vector was used to stably integrate into the genome of melanoma cells, which can be used for the identical small molecule screen. Screen optimization was carried out using forskolin and MSH as positive control small molecules (which upregulate cAMP and MITF expression (D'Orazio J A, Nobuhisa T, Cui R, Arya M, Spry M, Wakamatsu K, Igras V, Kunisada T, Granter S R, Nishimura E K, Ito S, Fisher D E: Topical drug rescue strategy and skin protection based on the role of Mc1r in UV-induced tanning, Nature 2006, 443:340-344)). Small molecules which suppress MSH induced TRPM1-luciferase without altering cell numbers or viability, represent initial “hits” in this screen. Negative control includes a constitutive luciferase vector within the same cells (eg driven by a constitutive promoter such as thymidine kinase promoter), to control for nonspecific inhibitors of basal transcriptional machinery-something which would otherwise be assessed in detail during secondary/tertiary analyses of candidate hits.
The human melanoma cell line Skme15 was utilized due to the advantageous growth properties as well as the inventors' prior experience that Skme15 expresses a typical level of MITF protein. […] Therefore, an integrated TRPM1-luciferase reporter was generated, and the subsequent cells were cloned twice (serially) to assure purity of the reporter cell population. Cells were maintained in drug selection to assure maintenance of the luciferase reporter (when drug was omitted, eventual loss of the luciferase signal was observed). Following re-cloning, distinct isolates were selected for further use on the basis of clonogenic growth on 384 well plates, as required for the small molecule screen. A positive control for suppression of TRPM1-luciferase signal utilized: a lentivirus encoding shRNA against MITF. […] The day-to-day variability in plating efficiency was analyzed, and found very high reproducibility in the line which was selected for further use in the screen.
The screen was carried out with a library from the Broad Institute comprising a mixture of natural products, known bioactives, and additional compounds (a total of about 13,000 compounds). […]

Skme15 = assay: Toxicity with fluorescence viability probe (CellTiter-Fluo Cell Viability Assay); type: cell-based, human; settings: composite of the variation between drug-treated and control divided by the standard error
Procedure: Although the shape of the dose-response can vary among hits, the inventors chose to include all candidates which produce dose-dependent effects. The fourth criterion which was determined is the IC50 (described formally as qAC50) which represents the half-maximal suppression dose. Most of the candidate hits resided in the high nanomolar to low micromolar range by this criterion (all of these validation data are listed in Table 1). The fifth criterion was maximal suppression (at any dose), which represented the magnitude of suppression which was attainable regardless of the dose required to achieve it. […] The sixth criterion to be determined is the Log P partition coefficient, which is a predictor of lipophilicity. For this, the inventors have used the method of Ghose and Crippen to calculate the predicted octanol-water partition coefficient (J. Comp. Chem. 9, 80(1988)). While this is only an estimate of potential skin penetration, the analysis was carried out because it helps in prioritizing likelihood of topical effectiveness, in theory. The seventh criterion was an analysis of toxicity utilizing a fluorescence viability probe (CellTiter-Fluo™ Cell Viability Assay (Promega)). Interpretation of this endpoint is complicated by the fact that it represents a composite of the variation between drug-treated and control divided by the standard error The results shown in Table 1 indicate 34 candidate molecules which satisfied all of the criteria outlined above. […] Most of their potencies ranged slightly below or above 1 uM. While the lipophilicity scores remain imperfect predictors of skin penetration capability. However, numbers of >3 can be more likely to penetrate.

Row | Structure (SMILES) | Z-Score [1] | Viability z-score (treated minus control, divided by standard error) (Skme15)
1 | Cc1oc(-c2ccc3c(c2)OCCO3)cc1C(=O)NCC(=O)O [N-[5-(2,3-dihydro-1,4-benzodioxin-6-yl)-2-methyl-3-furoyl]glycine] | −10.0065 | −0.0206
2 | COc1cccc(C(=O)NC(c2ccc(Cl)cc2)c2c(O)ccc3ccccc23)c1 (stereo not drawn) [N-[(4-chlorophenyl)(2-hydroxy-1-naphthyl)methyl]-3-methoxybenzamide] | −11.9861 | −0.1221
3 | O=C(CCSc1nc(-c2ccccc2)cs1)Nc1ccccc1 [N-phenyl-3-[(4-phenyl-1,3-thiazol-2-yl)thio]propanamide] | −10.8255 | −0.2442
4 | O=C(O)COc1cccc(-c2nc3ccccc3s2)c1 [[3-(1,3-benzothiazol-2-yl)phenoxy]acetic acid] | −11.9101 | −0.0206
5 | N#CC(C#N)=C(Nc1ccccc1Cl)SCc1cccc(F)c1 [{[(2-chlorophenyl)amino][(3-fluorobenzyl)thio]methylene}malononitrile] | −10.3064 | −1.5092
6 | N#CC(C#N)=C(Nc1ccc(Br)cc1)SCc1ccc(F)cc1 [{[(4-bromophenyl)amino][(4-fluorobenzyl)thio]methylene}malononitrile] | −9.463 | −1.5092
